Measured values from US9017681B2, “Adenylyl cyclases as novel targets for antibactrial interventions” (Cornell Research Foundation, Inc., priority 2007, dated 2015).
Where two headings read alike, the source gives them in different places.

Molecular target: T1, human sAC (Homo sapiens, UniProt Q96PN6)
T1 construct: made in house
T1 sequence (Q96PN6 1-469 limits assumed): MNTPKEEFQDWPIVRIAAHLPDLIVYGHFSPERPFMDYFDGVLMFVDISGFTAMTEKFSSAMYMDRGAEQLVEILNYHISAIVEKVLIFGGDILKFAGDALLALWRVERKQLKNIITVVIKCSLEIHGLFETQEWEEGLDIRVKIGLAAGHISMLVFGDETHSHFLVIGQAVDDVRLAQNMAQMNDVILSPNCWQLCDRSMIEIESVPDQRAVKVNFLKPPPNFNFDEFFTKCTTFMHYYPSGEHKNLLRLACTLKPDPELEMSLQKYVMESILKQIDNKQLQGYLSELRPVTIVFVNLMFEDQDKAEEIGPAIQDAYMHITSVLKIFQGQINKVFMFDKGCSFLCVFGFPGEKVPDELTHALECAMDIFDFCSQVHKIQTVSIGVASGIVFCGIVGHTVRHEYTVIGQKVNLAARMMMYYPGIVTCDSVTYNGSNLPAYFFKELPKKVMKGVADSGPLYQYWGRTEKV
Assay: in vitro adenylyl cyclase assay with purified human sAC protein (cAMP by Correlate-EIA)
Assay type: biochemical
Description: Purified human sAC protein was used in an in vitro adenylyl cyclase assay. Purification of the protein is described in detail in Litvin et al. 2003. (J. Biol. Chem. 278:15922-15926). This paper also describes the general conditions for a sAC cyclase assay. The specific conditions for the in vitro assay are as follows.
For basal sAC activity, an assay master mixture with sufficient volume for all reactions was prepared containing:
100 U/ml creatine phosphokinase (CPK)
An aliquot of the master mixture was added to the purified human sAC. The assay mixture also included the indicated concentration of KH compound, or an equivalent volume of vehicle (i.e., DMSO) as control. The reaction was started by adding 5 mM ATP (total assay volume=100 μL). The reaction mixture was incubated at 30° C. for 30 minutes and then stopped by adding 100 μl […]. Stimulated assay conditions involve adding 40 mM bicarbonate and 5 mM CaCl2 to the above master mixture.
Cyclic AMP levels were measured in each sample using the Correlate-EIA Direct Cyclic AMP assay kit from Assay Designs as per manufacturers instructions.

[1] = 100 μM of compound, BASAL human sAC in vitro activity, read-out: % Inhibition (100 μM), hsACt-Basal
[2] = 100 μM of compound, stimulated human sAC in vitro activity, read-out: % Inhibition (100 μM), hsACt-Stim.
[3] = BASAL activity of human sAC in vitro (just Mg-ATP, no calcium or bicarbonate), read-out: hsACt-Basal approximate IC50 (or the dose range where the IC50 should lie)
[4] = stimulated activity of human sAC in vitro (calcium and bicarbonate stimulated), read-out: hsACt-Stim. approximate IC50 (or the dose range where the IC50 should lie)
[5] = 100 μM of compound, stimulated human sAC in vitro activity

| SMILES | inhibition at 100 µM [1] [%] | inhibition at 100 µM [2] [%] | IC50 [3] [µM] | IC50 [4] [µM] | Activation, printed in column % Inhibition (100 μM), hsACt-Basal (100 μM of compound, BASAL human sAC in vitro activity) | Activation, printed in column % Inhibition (100 μM), hsACt-Stim. [5] | Activation in words, printed in column % Inhibition (100 μM), hsACt-Stim. (@ 100, stimulated human sAC in vitro activity) | % Inhibition (100 μM), hsACt-Basal (100 μM of compound, BASAL human sAC in vitro activity, 100 µM) [%] | % Inhibition (100 μM), hsACt-Stim. (100 μM of compound, stimulated human sAC in vitro activity, 100 µM) [%] |
| --- | --- | --- | --- | --- | --- | --- | --- | --- | --- |
| COc1ccc(/C=N/NC(=O)CSc2nc3ccccc3[nH]2)cc1Br [KH7.151] | 75 | 50 | 10 to 100 | 10 to 100 | – | – | – | – | – |
| O=C(CSc1nc2ccccc2[nH]1)N/N=C/c1cc(I)cc(I)c1O [KH7.154] | 100 | 85 | 0.1 to 1 | 0.1 to 1 | – | – | – | – | – |
| O=C(CSc1nc2ccccc2[nH]1)N/N=C/c1ccc([N+](=O)[O-])cc1 [KH7.122] | 50 | 50 | – | – | – | – | – | – | – |
| O=C(CSc1nc2ccccc2[nH]1)N/N=C/c1ccccc1Cl [KH7.133] | 60 | – | 10 to 100 | – | – | – | – | – | – |
| O=C(CSc1nc2ccccc2[nH]1)N/N=C/c1ccc(Cl)c([N+](=O)[O-])c1 [KH7.146] | 50 | 40 | – | > 100 | – | – | – | – | – |
| C/C(=N/NC(=O)CSc1nc2ccccc2[nH]1)c1cccc(Br)c1 [KH7.119] | 60 | 80 | 10 to 100 | 10 to 100 | – | – | – | – | – |
| CCOc1ccc(/C=N/NC(=O)CSc2nc3ccccc3[nH]2)cc1OC [KH7.145] | 0 | 20 | > 100 | > 100 | – | – | – | – | – |
| Cc1ccc(Cn2c(SCC(=O)N/N=C/c3cc(Br)ccc3O)nc3ccccc32)cc1 [KH7.143] | 75 | 75 | 1 | 1 | – | – | – | – | – |
| Cn1c(SCC(=O)N/N=C/c2ccccn2)nc2ccccc21 [KH7.140] | 0 | 0 | > 100 | > 100 | – | – | – | – | – |
| COc1ccc(/C=N/NC(=O)CSc2nc3ccccc3[nH]2)cc1 [KH7.132] | 10 | 0 | > 100 | > 100 | – | – | – | – | – |
| O=C(CSc1nc2ccccc2[nH]1)N/N=C/c1ccc(C(F)(F)F)cc1 [KH7.150] | 0 | 0 | > 100 | > 100 | – | – | – | – | – |
| C/C(=N/NC(=O)CSc1nc2ccccc2[nH]1)c1ccc(-c2ccccc2)cc1 [KH7.113] | 80 | 80 | 10 to 100 | 10 to 100 | – | – | – | – | – |
| CC(C)c1ccc(/C=N/NC(=O)CSc2nc3ccccc3[nH]2)cc1 [KH7.135] | 50 | 0 | – | > 100 | – | – | – | – | – |
| O=C(CSc1nc2ccccc2n1Cc1ccccc1)N/N=C/c1cc(Br)ccc1O [KH7.141] | 80 | 80 | 1 to 10 | 1 | – | – | – | – | – |
| C/C(=N\NC(=O)CSc1nc2ccccc2[nH]1)c1ccc([N+](=O)[O-])cc1 [KH7.138] | 30 | 25 | > 100 | > 100 | – | – | – | – | – |
| O=C(CSc1nc2ccccc2[nH]1)N/N=C/c1ccccc1I [KH7.121] | 90 | 90 | 10 to 100 | 10 to 100 | – | – | – | – | – |
| Cc1ccc(/C=N/NC(=O)CSc2nc3ccccc3[nH]2)cc1 [KH7.134] | 0 | 0 | > 100 | > 100 | – | – | – | – | – |

| SMILES | inhibition at 100 µM [1] [%] | inhibition at 100 µM [2] [%] | IC50 [3] [µM] | IC50 [4] [µM] | Activation, printed in column % Inhibition (100 μM), hsACt-Basal (100 μM of compound, BASAL human sAC in vitro activity) | Activation, printed in column % Inhibition (100 μM), hsACt-Stim. [5] | Activation in words, printed in column % Inhibition (100 μM), hsACt-Stim. (@ 100, stimulated human sAC in vitro activity) | % Inhibition (100 μM), hsACt-Basal (100 μM of compound, BASAL human sAC in vitro activity, 100 µM) [%] | % Inhibition (100 μM), hsACt-Stim. (100 μM of compound, stimulated human sAC in vitro activity, 100 µM) [%] |
| --- | --- | --- | --- | --- | --- | --- | --- | --- | --- |
| C/C(=N/NC(=O)CSc1nc2ccccc2[nH]1)c1cccnc1 [KH7.116] | – | – | – | 0.1 to 1 | Activation 30% | Activation 50% | – | – | – |
| Cc1ccc(Cn2c(SCC(=O)N/N=C/c3ccncc3)nc3ccccc32)cc1 [KH7.142] | 0 | – | > 100 | 1 to 10 | – | – | Activation @ 100 | – | – |
| O=C(CSc1nc2ccccc2[nH]1)N/N=C/c1ccc(Cl)cc1 [KH7.137] | 0 | – | > 100 | 30 to 100 | – | Activation 100% | – | – | – |
| COc1cc(/C=N/NC(=O)CSc2nc3ccccc3[nH]2)cc(OC)c1OC(C)=O [KH7.124] | 40 | 30 | > 100 | > 100 | – | – | – | – | – |
| CCN(CC)c1ccc(/C=N/NC(=O)CSc2nc3ccccc3[nH]2)cc1 [KH7.136] | 80 | 40 | 10 to 100 | > 100 | – | – | – | – | – |
| O=C(CSc1nc2ccccc2[nH]1)N/N=C/c1cc(Br)ccc1F [KH7.152] | 60 | – | 10 to 100 | – | – | – | – | – | – |
| O=C(CSc1nc2ccccc2[nH]1)N/N=C/c1ccccc1C(=O)O [KH7.112] | 0 | 0 | > 100 | > 100 | – | – | – | – | – |
| O=C(CSc1nc2ccccc2n1Cc1ccc(Cl)cc1)N/N=C\c1cc(Br)ccc1O [KH7.144] | 70 | 80 | 1 | 1 | – | – | – | – | – |
| C/C(=N/NC(=O)CSc1nc2ccccc2[nH]1)c1ccc(Cl)c(Cl)c1 [KH7.115] | 80 | 80 | 10 to 100 | 10 to 100 | – | – | – | – | – |
| O=C(CSc1nc2ccccc2[nH]1)N/N=C/c1cccc(Cl)c1 [KH7.128] | 50 | 50 | – | – | – | – | – | – | – |
| O=C(CSc1nc2ccccc2[nH]1)N/N=C/c1cccnc1 [KH7.123] | 0 | 0 | > 100 | > 100 | – | – | – | – | – |
| O=C(CSc1nc2ccccc2[nH]1)N/N=C/c1cccc(F)c1 [KH7.153] | 0 | 0 | > 100 | > 100 | – | – | – | – | – |
| O=C(CSc1nc2ccccc2[nH]1)N/N=C/c1ccccc1Br [KH7.131] | 60 | 60 | 10 to 100 | 10 to 100 | – | – | – | – | – |
| O=C(CSc1nc2ccccc2[nH]1)N/N=C/c1cccc2ccccc12 [KH7.126] | 40 | 50 | > 100 | 10 to 100 | – | – | – | – | – |
| C/C(=N/NC(=O)CSc1nc2ccccc2[nH]1)c1ccc(F)cc1 [KH7.118] | 0 | 0 | > 100 | > 100 | – | – | – | – | – |
| Cn1c(SCC(=O)N/N=C/c2cc(Br)ccc2O)nc2ccccc21 [KH7.139] | 75 | 75 | 1 to 10 | 1 to 10 | – | – | – | 70 | 70 |
| O=C(CSc1nc2ccccc2[nH]1)N/N=C/c1cc([N+](=O)[O-])ccc1Cl [KH7.155] | 0 | 0 | > 100 | > 100 | – | – | – | – | – |
